Reference: patent US10052381B2, “Classifiers of NF-κB pathway activation, devices, and methods of use thereof” (Emory University, priority 2012, dated 2018)

Key:
Type in all cases: cell-based
[1] = tested on: p105 gene classifier (canonical NF-κB pathway); assay: nCounter gene expression of the p105 classifier in DLBCL cell lines after drug treatment
Description: (§1) FIG. 5A illustrates that rituximab increases the apoptotic effect of doxorubicin when it is associated with suppression of p105 and induction of p100 classifier gene expression. Boxplot of p100 and p105 gene list illustrating the changes in gene expression in cells treated with doxorubicin ([…]) or rituximab ([…]). Cells were treated for 24 hours and the percent of live cells was measured using an ImageXpress 5000A Automated Acquisition and Analysis System (Molecular Devices), quantitating for Yo-pro-1 or PI-negative cells.
(§2) Given the capacity of the p105 classifier to predict a better response to RCHOP, the extent to which both classifiers were targeted by rituximab was investigated. In this investigation, the pathway dysregulation in a series of DLBCL cell lines and their changes in gene expression produced by DNA damaging agent (doxorubicin) and rituximab was measured. Based on their known baseline pattern of NF-κB activation, cell lines with enhanced (OCI-LY3, OCI-LY10) and suppressed (OCI-LY19 and OCI-LY2) NF-κB activation were selected for further testing (FIG. 5A).
(§3) nCounter Analysis System technology was developed by NanoString Technologies. In brief, nCounter™ assay was performed using 100 ng of total RNA or 2 μL of tissue lysate per replicate. The nCounter CodeSet for these studies contained probe pairs for 47 test and 3 control genes. All 47 genes and controls (n=3) were assayed simultaneously in multiplexed reactions. […] Subsequently, supervised complete linkage agglomerative hierarchical clustering analysis was performed.

[2] = tested on: p100 gene classifier (noncanonical NF-κB pathway); assay: nCounter gene expression of the p100 classifier in DLBCL cell lines after drug treatment
Description: as §1, §2, §3

[3] = tested on: DLBCL cell lines OCI-LY3, OCI-LY10, OCI-LY19 and OCI-LY2; assay: Apoptosis studies (Yo-pro-1 / PI negative live cells, ImageXpress); conditions: rituximab alone, titrating doses, 24 hours; all four cell lines
Description: To assess the consequence of rituximab's functional effects, the degree of apoptosis produced after treating all four cell lines with titrating doses of doxorubicin and rituximab was measured.
For apoptosis studies, 10^4 cells were treated with titrating doses of doxorubicin (titrating doses: […], Sigma) or rituximab (titrating doses: 1.5, 2.5, 5, 10 and 20 mg/mL, Biogen Idec Inc). Twenty four hours later cells were stained with Yo-pro-1 iodide and propidium Iodide (PI, both from Invitrogen). Live cells were measured using an ImageXpress 5000A Automated Acquisition and Analysis System (Molecular Devices), quantitating for Yo-pro-1 iodide and PI negative cells.

[4] = doxorubicin alone, OCI-LY3, OCI-LY10 cells
[5] = rituximab with doxorubicin, NF-κB activated cell lines (OCI-LY3, OCI-LY10)

| Molecule | gene expression of p105 target genes [1, 4] | gene expression of p100 target genes [2, 4] | change in expression of p105 classifier ([1]; OCI-LY2 and OCI-LY19 cells) | effect on doxorubicin's induction of p105 gene classifier [1, 5] | degree of apoptosis [3] | change in expression of p100 classifier ([2]; OCI-LY2 and OCI-LY19 cells) | effect on doxorubicin's induction of p100 gene classifier [2, 5] |
| --- | --- | --- | --- | --- | --- | --- | --- |
| COc1cccc2c1C(=O)c1c(O)c3c(c(O)c1C2=O)C[C@@](O)(C(=O)CO)C[C@@H]3O[C@H]1C[C@H](N)[C@H](O)[C@H](C)O1 [doxorubicin] | moderately induced | moderately induced | – | – | – | – | – |
| rituximab | – | – | minimally changed | suppressed doxorubicin's induction | did not induce significant apoptosis beyond background levels | minimally changed | enhanced the induction |
